These results are taken from patent US10584117B2, “1,3,4-oxadiazole amide derivative compound as histone deacetylase 6 inhibitor, and pharmaceutical composition containing same” (Chong Kun Dang Pharmaceutical Corp., priority 2015, dated 2020).

This assay addresses T1, human recombinant HDAC6 (Homo sapiens, UniProt Q9UBN7).
T1 construct: purchased Calbiochem 382180
T1 sequence (Q9UBN7 1-1215): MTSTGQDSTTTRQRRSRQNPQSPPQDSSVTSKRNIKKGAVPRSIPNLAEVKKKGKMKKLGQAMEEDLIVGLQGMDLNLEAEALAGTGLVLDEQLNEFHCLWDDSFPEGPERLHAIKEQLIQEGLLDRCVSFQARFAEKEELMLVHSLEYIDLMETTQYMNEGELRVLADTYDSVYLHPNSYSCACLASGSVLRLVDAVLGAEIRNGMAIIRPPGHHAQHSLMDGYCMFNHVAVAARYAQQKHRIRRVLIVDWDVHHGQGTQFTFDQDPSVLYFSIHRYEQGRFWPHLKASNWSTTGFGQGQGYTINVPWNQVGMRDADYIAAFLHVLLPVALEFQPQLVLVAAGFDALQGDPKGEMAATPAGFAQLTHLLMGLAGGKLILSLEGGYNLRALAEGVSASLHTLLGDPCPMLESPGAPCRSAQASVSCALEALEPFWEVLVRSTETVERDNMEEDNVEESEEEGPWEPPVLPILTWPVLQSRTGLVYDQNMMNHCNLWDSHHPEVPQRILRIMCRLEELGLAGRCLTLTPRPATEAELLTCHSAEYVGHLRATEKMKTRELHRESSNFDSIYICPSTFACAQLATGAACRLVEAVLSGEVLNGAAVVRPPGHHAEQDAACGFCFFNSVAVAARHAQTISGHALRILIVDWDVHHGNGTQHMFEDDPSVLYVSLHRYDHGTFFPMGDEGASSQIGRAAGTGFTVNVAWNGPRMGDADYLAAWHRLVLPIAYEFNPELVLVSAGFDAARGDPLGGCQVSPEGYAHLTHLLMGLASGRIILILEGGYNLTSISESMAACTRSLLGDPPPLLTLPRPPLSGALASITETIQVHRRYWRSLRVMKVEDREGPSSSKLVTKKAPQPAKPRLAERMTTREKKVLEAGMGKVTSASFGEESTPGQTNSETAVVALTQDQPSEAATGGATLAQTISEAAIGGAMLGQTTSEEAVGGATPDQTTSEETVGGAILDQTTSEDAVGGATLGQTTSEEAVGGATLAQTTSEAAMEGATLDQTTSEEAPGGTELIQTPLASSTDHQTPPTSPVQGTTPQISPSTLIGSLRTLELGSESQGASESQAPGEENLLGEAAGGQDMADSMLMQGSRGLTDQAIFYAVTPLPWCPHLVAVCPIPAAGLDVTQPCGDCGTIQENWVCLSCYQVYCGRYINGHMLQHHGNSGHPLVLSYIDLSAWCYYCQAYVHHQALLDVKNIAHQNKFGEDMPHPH
As to the kind of experiment: HDAC enzyme activity inhibition assay (HDAC6, fluorimetric kit). Type of assay: biochemical. As to conditions: for HDAC6 selectivity (fold): HDAC6 versus HDAC1; for IC50: same protocol as the HDAC1 test. The method, then: In order to examine the HDAC6 selectivity of the compounds of formula I of the present invention by HDAC1 and HDAC6 enzymatic activity inhibition assays, an experiment was performed using a conventional substance as a control. HDAC enzyme activity was measured using a HDAC Fluorimetric Drug Discovery Kit (BML-AK511, 516) from Enzo Life Science. For the HDAC1 enzyme activity test, human recombinant HDAC1 (BML-SE456) was used as an enzyme source, and Fluor de Lys®-“SIRT1 (BNL-KI177) was used as a substrate. A 5-fold dilution of the compound was seeded into a 96-well plate, and then 0.3 μg of the enzyme and 10 μM of the substrate were added to each well of the plate and allowed to react at 30° C. for 60 minutes. Then, Fluor de Lys®-Developer II (BML-KI176) was added thereto and allowed to react for 30 minutes, after which the fluorescence value (Ex 360, Em 460) was measured using a multi-plate reader (Flexstation 3, Molecular Device). The HDAC6 enzyme was tested using human recombinant HDAC6 (382180) from Calbiochem, according to the same protocol as the HDAC1 enzyme activity test method. Based on the resulting values, each IC50 value was calculated using GraphPad Prism4.0 program.

The IC50 is the midpoint of a concentration-inhibition curve. For the molecule `CC(=O)N1CCC(C(=O)N(Cc2ccc(-c3nnc(C(F)(F)F)o3)cc2)c2ccccc2)CC1` [Compound 11161, 1-acetyl-N-phenyl-N-(4-(5-(trifluoromethyl)-1,3,4-oxadiazol-2-yl)benzyl)piperidine-4-carboxamide], the “HDAC6 selectivity (fold)” value is given as 204 fold and the IC50 came out at 489 nM.

Consider `CCC(=O)N1CCC(C(=O)N(Cc2ccc(-c3nnc(C(F)(F)F)o3)cc2)c2ccccc2)CC1` [Compound 11162, N-phenyl-1-propionyl-N-(4-(5-(trifluoromethyl)-1,3,4-oxadiazol-2-yl)benzyl)piperidine-4-carboxamide], for which the “HDAC6 selectivity (fold)” value was 483 fold and the IC50 is 207 nM.

Consider `CC(C)C(=O)N1CCC(C(=O)N(Cc2ccc(-c3nnc(C(F)(F)F)o3)cc2)c2ccccc2)CC1` [Compound 11163, 1-isobutyryl-N-phenyl-N-(4-(5-(trifluoromethyl)-1,3,4-oxadiazol-2-yl)benzyl)piperidine-4-carboxamide], for which the “HDAC6 selectivity (fold)” value amounted to 452 fold and the IC50 turned out to be 221 nM.

As to `O=C(C1CCN(C(=O)C(F)(F)F)CC1)N(Cc1ccc(-c2nnc(C(F)(F)F)o2)cc1)c1ccccc1` [Compound 11164, N-phenyl-1-(2,2,2-trifluoroacetyl)-N-(4-(5-(trifluoromethyl)-1,3,4-oxadiazol-2-yl)benzyl)piperidine-4-carboxamide], the “HDAC6 selectivity (fold)” value turned out to be 298 fold and the IC50 was 336 nM.

On to `CS(=O)(=O)N1CCC(C(=O)N(Cc2ccc(-c3nnc(C(F)(F)F)o3)cc2)c2ccccc2)CC1` [Compound 11165, 1-(methylsulfonyl)-N-phenyl-N-(4-(5-(trifluoromethyl)-1,3,4-oxadiazol-2-yl)benzyl)piperidine-4-carboxamide], for which the “HDAC6 selectivity (fold)” value was 800 fold and the IC50 was 125 nM.

`CC(=O)N1CC(C(=O)N(Cc2ccc(-c3nnc(C(F)(F)F)o3)cc2)c2ccccc2)C1` [Compound 11187, N1-acetyl-N-phenyl-N-(4-(5-(trifluoromethyl)-1,3,4-oxadiazol-2-yl)benzyl)azetidine-3-carboxamide]: the “HDAC6 selectivity (fold)” value turned out to be 144 fold and the IC50 turned out to be 189 nM.

As to `O=C(c1ccncc1)N(Cc1ccc(-c2nnc(C(F)(F)F)o2)cc1F)c1cccc(F)c1` [Compound 11188, N-(2-fluoro-4-(5-(trifluoromethyl)-1,3,4-oxadiazol-2-yl)benzyl)-N-(3-fluorophenyl)isonicotinamide], the “HDAC6 selectivity (fold)” value came to 935 fold and the IC50 came out at 107 nM.

For the molecule `O=C(c1ccncc1)N(Cc1ccc(-c2nnc(C(F)F)o2)cc1F)c1cccc(F)c1` [Compound 11189, N-(4-(5-(difluoromethyl)-1,3,4-oxadiazol-2-yl)-2-fluorobenzyl)-N-(3-fluorophenyl)isonicotinamide], the “HDAC6 selectivity (fold)” value amounted to 2564 fold and the IC50 worked out at 39 nM.

For `CN1CCC(C(=O)N(Cc2ccc(-c3nnc(C(F)(F)F)o3)cc2F)c2ccccc2)CC1` [Compound 11200, N-(2-fluoro-4-(5-(trifluoromethyl)-1,3,4-oxadiazol-2-yl)benzyl)-1-methyl-N-phenylpiperidine-4-carboxamide], the “HDAC6 selectivity (fold)” value amounted to 763 fold and the IC50 was 131 nM.

In the case of `CCN1CCC(C(=O)N(Cc2ccc(-c3nnc(C(F)(F)F)o3)cc2F)c2ccccc2)CC1` [Compound 11201], the “HDAC6 selectivity (fold)” value came out at 877 fold and the IC50 came to 114 nM.

As to `CC(C)N1CCC(C(=O)N(Cc2ccc(-c3nnc(C(F)(F)F)o3)cc2F)c2ccccc2)CC1` [Compound 11202, N-(2-fluoro-4-(5-(trifluoromethyl)-1,3,4-oxadiazol-2-yl)benzyl)-1-isopropyl-N-phenylpiperidine-4-carboxamide], the “HDAC6 selectivity (fold)” value is given as 735 fold and the IC50 was 136 nM.

For the molecule `CC(=O)N1CCC(C(=O)N(Cc2ccc(-c3nnc(C(F)(F)F)o3)cc2F)c2ccccc2)CC1` [Compound 11203, 1-acetyl-N-(2-fluoro-4-(5-(trifluoromethyl)-1,3,4-oxadiazol-2-yl)benzyl)-N-phenylpiperidine-4-carboxamide], the “HDAC6 selectivity (fold)” value is 694 fold and the IC50 is 144 nM.

As to `CCC(=O)N1CCC(C(=O)N(Cc2ccc(-c3nnc(C(F)(F)F)o3)cc2F)c2ccccc2)CC1` [Compound 11204, N-(2-fluoro-4-(5-(trifluoromethyl)-1,3,4-oxadiazol-2-yl)benzyl)-N-phenyl-1-propionylpiperidine-4-carboxamide], the “HDAC6 selectivity (fold)” value was determined as 917 fold and the IC50 was 109 nM.

As for `CC(C)C(=O)N1CCC(C(=O)N(Cc2ccc(-c3nnc(C(F)(F)F)o3)cc2F)c2ccccc2)CC1` [Compound 11205, N-(2-fluoro-4-(5-(trifluoromethyl)-1,3,4-oxadiazol-2-yl)benzyl)-1-isobutyryl-N-phenylpiperidine-4-carboxamide], the “HDAC6 selectivity (fold)” value is 332 fold and the IC50 is 301 nM.

In the case of `O=C(C1CCN(C(=O)C(F)(F)F)CC1)N(Cc1ccc(-c2nnc(C(F)(F)F)o2)cc1F)c1ccccc1` [Compound 11206, N-(2-fluoro-4-(5-(trifluoromethyl)-1,3,4-oxadiazol-2-yl)benzyl)-N-phenyl-1-(2,2,2-trifluoroacetyl)piperidine-4-carboxamide], the “HDAC6 selectivity (fold)” value turned out to be 269 fold and the IC50 came out at 372 nM.

As to `CS(=O)(=O)N1CCC(C(=O)N(Cc2ccc(-c3nnc(C(F)(F)F)o3)cc2F)c2ccccc2)CC1` [Compound 11207, N-(2-fluoro-4-(5-(trifluoromethyl)-1,3,4-oxadiazol-2-yl)benzyl)-1-(methylsulfonyl)-N-phenylpiperidine-4-carboxamide], the “HDAC6 selectivity (fold)” value worked out at 813 fold and the IC50 came to 123 nM.

Regarding `CN1CCC(C(=O)N(Cc2ccc(-c3nnc(C(F)F)o3)cc2F)c2ccccc2)CC1` [Compound 11208, N-(4-(5-(difluoromethyl)-1,3,4-oxadiazol-2-yl)-2-fluorobenzyl)-1-methyl-N-phenylpiperidine-4-carboxamide], the “HDAC6 selectivity (fold)” value came to 1136 fold and the IC50 was 88 nM.

As for `CCN1CCC(C(=O)N(Cc2ccc(-c3nnc(C(F)F)o3)cc2F)c2ccccc2)CC1` [Compound 11209, N-(4-(5-(difluoromethyl)-1,3,4-oxadiazol-2-yl)-2-fluorobenzyl)-1-ethyl-N-phenylpiperidine-4-carboxamide], the “HDAC6 selectivity (fold)” value stood at 1031 fold and the IC50 came out at 97 nM.

Consider `CC(C)N1CCC(C(=O)N(Cc2ccc(-c3nnc(C(F)F)o3)cc2F)c2ccccc2)CC1` [Compound 11210, N-(4-(5-(difluoromethyl)-1,3,4-oxadiazol-2-yl)-2-fluorobenzyl)-1-isopropyl-N-phenylpiperidine-4-carboxamide], for which the “HDAC6 selectivity (fold)” value worked out at 418 fold and the IC50 was 239 nM.

On to `CC(=O)N1CCC(C(=O)N(Cc2ccc(-c3nnc(C(F)F)o3)cc2F)c2ccccc2)CC1` [Compound 11211, 1-acetyl-N-(4-(5-(difluoromethyl)-1,3,4-oxadiazol-2-yl)-2-fluorobenzyl)-N-phenylpiperidine-4-carboxamide], for which the “HDAC6 selectivity (fold)” value came to 1351 fold and the IC50 turned out to be 74 nM.
